From patent US20060172993A1 (priority 2002, published 2006)
Marks after values point to notes of the source that are not given here.

How the values were obtained:
Type in all cases: in vivo, human
[1] = test system: Patients diagnosed with Alzheimer's Disease; assay: Discontinuation of trial medication
[2] = test system: Patients diagnosed with Alzheimer's Disease; assay: ADAS-cog/11 cognitive subscale, 5-month placebo-controlled trial; settings: for ADAS-cog/11 responders, change ≦ 0 points, % / ADAS-cog/11 responders, change ≦ −4 points, % / ADAS-cog/11 responders, change ≦ −7 points, % / ADAS-cog/11 responders, change ≦ −10 points, %: Month 5
From the text: (§1) Subjects in the Placebo group received 21 weeks (5 months) of placebo medication.
The ADAS consists of two parts—a cognitive subscale and a behavioral subscale. The behavioral subscale was not be used in this study. The cognitive subscale, the ADAS--cog-11, consisted of Word Recall and Word Recognition memory tests, Object and Finger Naming, Commands, Constructional Praxis, Ideational Praxis, Orientation, Remembering Test Instructions, Spoken language Ability, Comprehension of Spoken language and Word Finding Difficulty was the primary variable in this study.
The ADAS was performed at visits 1, 2, 3, 4 and 5 (screening, baseline, week 4, week 13 and month 5 or upon early discontinuation of trial medication intake). For word recall and word recognition two parallel wordlists, list A and list B were employed. List A was used at visits 1 and 3, List B at visits 2, 4, and 5 or upon early discontinuation of trial medication intake. For practical reasons the words for word recognition was presented only once. The total score of the 11 cognitive items on the original ADAS cognitive subscale (ADAS-cog/11, Range: 0-70) was recorded.
Between treatment groups comparisons (with particular focus on differences from placebo) were done at each scheduled time interval and for each endpoint imputation scheme. These comparisons will be based on the change from baseline scores for efficacy parameters with baseline (e.g., ADAS-cog/11) and the original scored for efficacy parameters without baseline e.g., CIBIC-plus).
For continuous data, a two-way analysis of variance (ANOVA) model with treatment and investigator as factors were used to compare the treatment groups for the change from baseline data. The interaction between treatment and investigator was examined. The impact of the baseline score on change from baseline was evaluated. […] If the parametric methods were deemed inappropriate (normality assumption violated), nonparametric methods such as two-way ANOVA on ranked data, Van Elteren test, controlling for investigator, was used. Following ANOVA, Fisher's LSD procedure was used for pairwise comparisons between each galanthamine group and the placebo group. A linear contrast on the main effect for treatment was used to test the dose response relationship.

[3] = test system: Patients diagnosed with Alzheimer's Disease; assay: CIBIC-plus (Clinician's Interview Based Impression of Change Plus Family Input)
Procedure: as §1
The CIBIC-plus score was a second primary variable. An independent, experienced and properly trained clinician provided a global impression of the subject's deterioration or improvement over the course of the trial, based on separate interviews with the subject and caregivers. If helpful, the CIBIC rater audiotaped or videotaped the baseline interview for future reference.
The CIBIC-plus was performed at visit 2, 3, 4, and 5 (baseline, week 4, week 13, and month 5 or upon early discontinuation of trial medication intake). Only a trained CIBIC rater performed the test.
For ordinal categorical variables such as the CIBIC-plus score, the Van Elteren test controlling for investigator was used for the between group comparison. For the nominal data (e.g., events rates), the Cochran-Mantel-Haenszel test for general association controlling for investigator was used. A linear contrast on the proportion of patients that stay the same or improve was used to test for increasing response with increasing dose.

[4] = test system: Patients diagnosed with Alzheimer's Disease; assay: Neuropsychiatric Inventory (NPI)
From the text: as §1
Neuropsychiatric behavior was monitored by a test known as The Neuropsychiatric Inventory (NPI) (Cummings, J. L. et al., Neurology, 44: 2308-2314, 1994). The NPI covers 10 domains of behaviors reported in patients with Alzheimer's Disease: delusions, hallucinations, agitation/aggression, dysphoria, anxiety, euphoria, apathy, disinhibition, irritability/lability and aberrant motor behavior. For each domain abnormal behavior can be absent (score 0) or present. If present, the frequency and severity of abnormal behavior is rated based on answers to a set of subquestions regarding behaviors relevant to that domain. Severity was rated 1 to 3 as mild, moderate or marked. Frequency was rated 1 to 4 as occasionally, often, frequently and very frequently. The product of frequency and severity (maximum score=12) was calculated for each domain. A total of NPI was calculated as the sum of the frequency and severity products (maximum score=120). The NPI was performed at visits 2, 3, 4 and 5 (baseline, week 4, week 13, and month 5 or upon early discontinuation of trial medication).

SMILES: COc1ccc2c3c1O[C@H]1C[C@@H](O)C=C[C@@]31CCN(C)C2 [GAL, galantamine]
- DC due to adverse event, % ([1]; 8 mg/day): 6%
- Total discontinued (DC), % ([1]; 8 mg/day): 23%
- DC due to adverse event, % ([1]; 16 mg/day): 7%
- Total discontinued (DC), % ([1]; 16 mg/day): 22%
- DC due to adverse event, % ([1]; 24 mg/day): 10%
- Total discontinued (DC), % ([1]; 24 mg/day): 22%
- Change from baseline in ADAS-cog/11 at Month 5, Mean ([2]; 8 mg/day, LOCF): 0.4
- ADAS-cog/11 responders, change ≦ 0 points, % ([2]; 8 mg/day): (46.5) %
- ADAS-cog/11 responders, change ≦ −4 points, % ([2]; 8 mg/day): (25.7) %
- ADAS-cog/11 responders, change ≦ −7 points, % ([2]; 8 mg/day): (13.9) %
- ADAS-cog/11 responders, change ≦ −10 points, % ([2]; 8 mg/day): (5.9) %
- Change from baseline in ADAS-cog/11 at Month 5, Mean ([2]; 8 mg/day, observed case): 0.1
- Change from baseline in ADAS-cog/11 at Month 5, Mean ([2]; 16 mg/day, LOCF): −1.4
- ADAS-cog/11 responders, change ≦ 0 points, % ([2]; 16 mg/day): (65.4)***^‡ %
- ADAS-cog/11 responders, change ≦ −4 points, % ([2]; 16 mg/day): (35.6)***♦ %
- ADAS-cog/11 responders, change ≦ −7 points, % ([2]; 16 mg/day): (15.9)** %
- ADAS-cog/11 responders, change ≦ −10 points, % ([2]; 16 mg/day): (7.2) %
- ADAS-cog/11 responders, change ≦ −7 points, % ([2]; 16 mg/day, listed as galantamine): 15.9%
- Change from baseline in ADAS-cog/11 at Month 5, Mean ([2]; 16 mg/day, observed case): −1.5
- Change from baseline in ADAS-cog/11 at Month 5, Mean ([2]; 24 mg/day, LOCF): −1.4
- ADAS-cog/11 responders, change ≦ 0 points, % ([2]; 24 mg/day): (64.9)***^‡ %
- ADAS-cog/11 responders, change ≦ −4 points, % ([2]; 24 mg/day): (37.0)***^† %
- ADAS-cog/11 responders, change ≦ −7 points, % ([2]; 24 mg/day): (22.3)***♦♦ %
- ADAS-cog/11 responders, change ≦ −10 points, % ([2]; 24 mg/day): (10.4)** %
- ADAS-cog/11 responders, change ≦ −7 points, % ([2]; 24 mg/day, listed as galantamine): 22.3%
- Change from baseline in ADAS-cog/11 at Month 5, Mean ([2]; 24 mg/day, observed case): −1.8
- CIBIC-plus at Month 5 improved/no change, % of patients ([3]; 8 mg/day, LOCF): (53%)
- CIBIC-plus at Month 5 improved/no change, % of patients ([3]; 8 mg/day, observed case): (51%)
- CIBIC-plus at Month 5 improved/no change, % of patients ([3]; 16 mg/day, LOCF): (66%)***^†
- CIBIC-plus at Month 5 improved/no change, % of patients ([3]; 16 mg/day, observed case): (68%)***^†
- CIBIC-plus at Month 5 improved/no change, % of patients ([3]; 16 mg/day, observed case, listed as galantamine): 68%
- CIBIC-plus at Month 5 improved/no change, % of patients ([3]; 24 mg/day, LOCF): (64%)***^‡
- CIBIC-plus at Month 5 improved/no change, % of patients ([3]; 24 mg/day, observed case): (64%)***^‡
- CIBIC-plus at Month 5 improved/no change, % of patients ([3]; 24 mg/day, observed case, listed as galantamine): 64%
- Change in Total NPI score from baseline at Month 5, Mean ([4]; 8 mg/day, LOCF): 2.3
- Change in Total NPI score from baseline at Month 5, Mean ([4]; 8 mg/day, observed case): 2.3
- Change in Total NPI score from baseline at Month 5, Mean ([4]; 16 mg/day, LOCF): −0.1
- Change in Total NPI score from baseline at Month 5, Mean ([4]; 16 mg/day, observed case): −0.1
- Change in Total NPI score from baseline at Month 5, Mean ([4]; 24 mg/day, LOCF): −0.0
- Change in Total NPI score from baseline at Month 5, Mean ([4]; 24 mg/day, observed case): −0.1
